In patent US10632106B2, “Methods of cancer treatment with 2-(1′H-Indole-3′-carbonyl)-thiazole-4-carboxylic acid methyl ester” (Ariagen, Inc., priority 2009, dated 2020):

Columns and labels:
[1] = system: T24 (Human bladder cancer) xenografts; test: T24 xenograft growth inhibition; type: in vivo; settings: ITE 100-200 mg/kg i.p. once daily
Method: (§1) All the procedures related to animal handling, care, and the treatment in the study were performed following guidelines of KeyGen Biotechn Co., Ltd. (Nanjing, China), a contract research organization we hired, based on the guidance of the Association for Assessment and Accreditation of Laboratory Animal Care (AAALAC). Animals were checked for any effects of tumor growth and drug treatment on normal behavior such as mobility, food and water consumption, body weight gain/loss (bodyweights were measured every two days), eye/hair matting, and any other abnormal effect. Death and observed clinical signs were recorded. Individual animals with a tumor volume exceeding 3,000 mm^3 or animals of a group with a mean tumor volume exceeding 2,000 mm^3 were euthanized. In addition, animals showing signs of severe distress and/or pain or losing the capability of accessing adequate food or water were humanely sacrificed.
(§2) Cell lines HCT116, Siha, MFC were cultured in DMEM medium (high glucose) supplemented with 10% fetal bovine serum (FBS), SW116 and T24 in RPMI-1640 medium with 10% FBS, M14 and A375 in DMEM medium (high glucose) with 10% calf serum (CS), SGC7901 and Ketr-3 in RPMI-1640 medium with 10% CS, and CFPAC-1 in IMDM medium with 10% FBS. All of the cells were cultured, in the presence of 100 U/ml penicillin and 100 μg/ml streptomycin, at 37° C. in an atmosphere of 5% CO2 in air. […] The cells growing in an exponential phase were harvested and counted for tumor inoculation. Cell lines 5180 and U14 were maintained in ascites (peritoneal cavity fluid) of mice and were harvested and counted for tumor inoculation. […]
(§3) Tumor volume was measured every two days in two dimensions using a caliper and the volume was calculated with a formula of: V=0.5 a×b^2, where a and b are the long and short diameter (in mm) of a tumor, respectively. […] The TGD was calculated as: TGD=T−C, where T was the time (in days) required for tumors in a drug treated group to reach a predetermined mean tumor volume and C the time (in days) in the control group to reach the same volume. […]

[2] = system: U14 (mouse cervical cancer) homografts; test: U14 homograft (syngeneic) growth inhibition in ICR mice; type: in vivo; settings: ITE 200 mg/kg i.p. once daily
Method: as §1, §2, §3

[3] = end of therapy relative to beginning

Q: What does the source list for COC(=O)c1csc(C(=O)c2c[nH]c3ccccc23)n1 [ITE, 2-(1′H-indole-3′-carbonyl)-thiazole-4-carboxylic acid methyl ester]?
A: TGD ([1]; TGD at Vol. 1,000): 9 days; TGI (%) ([1]; TGI at day 26, TGI=(1−ΔT/ΔC)×100%): 66%; Weight Loss [1, 3]: 13%; TGD ([2]; TGD at Vol. 2,000): 3 days; TGI (%) ([2]; TGI at day 6, TGI=(1−ΔT/ΔC)×100%): 46%; Weight Loss [2, 3]: 4%
